Data as given in patent US20130216600A1, “ANTIMICROBIAL NANOPARTICLE CONJUGATES” (priority 2010, published 2013).
Values joined by “and” are separate entries in the source; they are usually repeats but may differ in a detail not shown here. Equal entries are not always repeated.

Assays:
[1] = system: Klebsiella pneumoniae ATCC 10031; assay: MIC of DexOx-antibiotic conjugates and free drugs; assay type: cell-based; conditions: K. pneumoniae
Experimental: (§1) To evaluate the antibacterial activity of DexOx-Amp, DexOx-Van and DexOx-Gen, the minimal inhibitory concentration (MIC) was determined for each of the conjugates and compared with each of MIC values obtained for Amp, Van and Gen. The tests were performed against 5×10^5 cells/mL (in 0.2 mL of medium) of Staphylococcus aureus ATCC 6538 (S. aureus), Pseudomonas aeruginosa ATCC 15442 (P. aeruginosa), Klebsiella pneumoniae ATCC 10031 (K. pneumoniae) or Escherichia coli ATCC 25922 (E. coli), with concentrations of the drug between 0 and 120 μg/mL. The microorganisms were incubated at 37° C. for 18 h, and the absorbance at 600 nm was monitored every 30 min.

[2] = system: Pseudomonas aeruginosa ATCC 15442; assay: MIC of DexOx-antibiotic conjugates and free drugs; assay type: cell-based; conditions: P. aeruginosa
Experimental: as §1

[3] = The Merck Index 1989; cited from earlier work
C. albicans = assay: Spectrum of antifungal activity, MIC after 8 hours; assay type: cell-based; conditions: formulation
Candida albicans = assay: MIC of AmB and DexOx-AmB conjugates (NCCLS M27A2E); assay type: cell-based; conditions: 48 hours
Text: The “minimal inhibitory concentration” or “MIC” is defined as the lowest drug concentration that results in complete inhibition of visible growth of a microorganism.

C. krusei = assay: Spectrum of antifungal activity, MIC after 8 hours; assay type: cell-based; conditions: formulation
Experimental: (§2) In order to determine the spectrum of antifungal activity of the nanoparticles functionalized with amphotericin B, they were tested against four strains of Candida, namely: C parapsilosis, C krusei, C glabrata, and C tropicalis. The MIC values were determined after 8 hours of incubation with AmB, DexOx-AmB conjugate, unconjugated silica nanoparticles, and silica nanoparticles functionalized with DexOx-AmB.

C. glabrata = assay: Spectrum of antifungal activity, MIC after 8 hours; assay type: cell-based; conditions: formulation
Experimental: as §2

C. parapsilosis = assay: Spectrum of antifungal activity, MIC after 8 hours; assay type: cell-based; conditions: formulation
Experimental: as §2

C. tropicalis = assay: Spectrum of antifungal activity, MIC after 8 hours; assay type: cell-based; conditions: formulation
Experimental: as §2

Compound: CC1(C)S[C@@H]2[C@H](NC(=O)[C@H](N)c3ccccc3)C(=O)N2[C@H]1C(=O)O [Amp, ampicillin]
- MIC ([1]; Klebsiella pneumoniae, ATCC10031, free drug): 20 to 40 µg/mL
- MIC ([2]; Pseudomonas aeruginosa, ATCC15442, free drug): > 120 µg/mL

Compound: amphotericin B [AmB]
- water solubility limit [3]: 100 µg/mL
- Minimum Inhibitory Concentration (MIC) (C. albicans): 0.3
- MIC (μg of conjugate/ml) (Candida albicans; 30° C., n=6): 0.9 ± 0.2 μg of conjugate/ml
- MIC (Candida albicans; unconjugated (soluble) AmB): 0.9 µg/mL and 0.9 ± 0.2 µg/mL
- Minimum Inhibitory Concentration (MIC) (C. krusei): 0.1
- Minimum Inhibitory Concentration (MIC) (C. glabrata): 0.03
- Minimum Inhibitory Concentration (MIC) (C. parapsilosis): 0.3
- Minimum Inhibitory Concentration (MIC) (C. tropicalis): 0.08

Compound: gentamicin
- MIC free drug (μg/mL) [1]: MIC < 2 μg/mL
- MIC free drug (μg/mL) [2]: MIC < 2 μg/mL
